In ChEMBL document CHEMBL3244225, “Synthesis and biological activity of some vinyl-substituted 2-nitroimidazoles” (J Med Chem, 1977):
Converted amounts (≈) assume the structure as drawn.

What was measured:
Staphylococcus aureus = test: Antimicrobial activity against Staphylococcus aureus Tour by tube dilution method; assay type: functional
Streptococcus pyogenes = test: Antimicrobial activity against Streptococcus haemolyticus C 203 by tube dilution method; assay type: functional
Streptococcus pneumoniae = test: Antimicrobial activity against Diplococcus pneumoniae UC41 by tube dilution method; assay type: functional
Clostridium perfringens = test: Antimicrobial activity against Clostridium perfringens ISS 30543 by tube dilution method; assay type: functional
Proteus vulgaris = test: Antimicrobial activity against Proteus vulgaris X19 H ATCC 881 by tube dilution method; assay type: functional
Escherichia coli = test: Antimicrobial activity against Escherichia coli SKF 12140 by tube dilution method; assay type: functional
Shigella sonnei = test: Antimicrobial activity against Shigella sonnei ATCC 9290 by tube dilution method; assay type: functional
Salmonella typhimurium = test: Antimicrobial activity against Salmonella typhimurium Kh by tube dilution method; assay type: functional, Salmonella enterica subsp. enterica serovar Typhimurium; settings: Salmonella enterica
Klebsiella pneumoniae = test: Antimicrobial activity against Klebsiella pneumoniae I.S.M. by tube dilution method; assay type: functional
Pseudomonas aeruginosa = test: Antimicrobial activity against Pseudomonas aeruginosa ATCC 10145 by tube dilution method; assay type: functional
Candida albicans = test: Antimicrobial activity against Candida albicans SKF 2270 by tube dilution method; assay type: functional
[1] = tested on: Trichophyton mentagrophytes; test: Antimicrobial activity against Trichophyton mentagrophytes SKF 17410 by tube dilution method; assay type: functional
[2] = tested on: Mycobacterium tuberculosis; test: Antimicrobial activity against Mycobacterium tuberculosis ATCC 9360 by tube dilution method; assay type: functional
[3] = tested on: Mycoplasmoides gallisepticum; test: Antimicrobial activity against Mycoplasma gallisepticum H21 C.Z.B. by tube dilution method; assay type: functional
Trichomonas vaginalis [4] = test: Trichomonastatic activity against Trichomonas vaginalis by tube dilution method; assay type: functional
Trichomonas vaginalis [5] = test: Trichomonacidal activity against Trichomonas vaginalis by tube dilution method; assay type: functional
Trichomonas vaginalis [6] = test: Ratio of metronidazole ED50 to compound ED50 for Trichomonas vaginalis infected in sc dosed mouse; assay type: functional
[7] = Toxicity in po dosed mouse infected with Trichomonas vaginalis; assay type: organism-based; settings: in vivo
Trichomonas vaginalis [8] = test: Antimicrobial activity against Trichomonas vaginalis infected in sc dosed mouse; assay type: functional

| SMILES | MIC (Staphylococcus aureus) [µg/mL] | MIC (Streptococcus pyogenes) [µg/mL] | MIC (Streptococcus pneumoniae) [µg/mL] | MIC (Clostridium perfringens) [µg/mL] | MIC (Proteus vulgaris) [µg/mL] | MIC (Escherichia coli) [µg/mL] | MIC (Shigella sonnei) [µg/mL] | MIC (Salmonella typhimurium) [µg/mL] | MIC (Klebsiella pneumoniae) [µg/mL] | MIC (Pseudomonas aeruginosa) [µg/mL] | MIC (Candida albicans) [µg/mL] | MIC [1] [µg/mL] | MIC [2] [µg/mL] | MIC [3] [µg/mL] | MIC (Trichomonas vaginalis [4]) [µg/mL] | MIC (Trichomonas vaginalis [5]) [µg/mL] | Ratio ED50 (Trichomonas vaginalis [6]) | LD50 [7] [mg/kg] | ED50 (Trichomonas vaginalis [8]) [mg/kg] |
| --- | --- | --- | --- | --- | --- | --- | --- | --- | --- | --- | --- | --- | --- | --- | --- | --- | --- | --- | --- |
| COC(=O)c1cnc([N+](=O)[O-])n1C | 50 (≈ 270 µM) | > 100 | 50 (≈ 270 µM) | 5 (≈ 27 µM) | > 100 | 20 (≈ 108 µM) | 100 (≈ 540 µM) | 100 (≈ 540 µM) | > 100 | > 100 | > 100 | > 100 | > 100 | > 100 | > 50 |  |  |  |  |
| CCCCC(C(O)c1cnc([N+](=O)[O-])n1C)[N+](=O)[O-] (stereo not drawn) | 50 (≈ 184 µM) | > 100 | 100 (≈ 367 µM) | 20 (≈ 73.5 µM) | 100 (≈ 367 µM) | 50 (≈ 184 µM) | 50 (≈ 184 µM) | 50 (≈ 184 µM) | 100 (≈ 367 µM) | 20 (≈ 73.5 µM) | 50 (≈ 184 µM) | 50 (≈ 184 µM) | 50 (≈ 184 µM) | 50 (≈ 184 µM) | > 100 |  |  |  |  |
| CC(/C=C/c1cnc([N+](=O)[O-])n1C)=N\N(C)C | 100 (≈ 421 µM) | > 100 | > 100 | 10 (≈ 42.1 µM) | > 100 | 50 (≈ 211 µM) | > 100 | > 100 | > 100 | > 100 | > 100 | > 100 | 20 (≈ 84.3 µM) | > 100 | 20 (≈ 84.3 µM) | 50 (≈ 211 µM) |  |  |  |
| Cc1cc(-c2cnc([N+](=O)[O-])n2C)n(CCO)n1 | 20 (≈ 79.6 µM) | 50 (≈ 199 µM) | 50 (≈ 199 µM) | 100 (≈ 398 µM) | > 100 | 50 (≈ 199 µM) | > 100 | > 100 | > 100 | > 100 | > 100 | > 100 | > 100 | > 100 | 10 (≈ 39.8 µM) | 50 (≈ 199 µM) |  |  |  |
| CC(/C=C/c1cnc([N+](=O)[O-])n1C)=N\NC(N)=S | 10 (≈ 37.3 µM) | 20 (≈ 74.5 µM) | > 50 | 5 (≈ 18.6 µM) | > 50 | > 50 | > 50 | > 50 | > 50 | > 50 | > 50 | > 50 | 10 (≈ 37.3 µM) | > 50 | 50 (≈ 186 µM) | 100 (≈ 373 µM) |  |  |  |
| Cc1ccc(S(=O)(=O)OCCn2c(C)cnc2[N+](=O)[O-])cc1 | > 100 | > 100 | > 100 | 50 (≈ 154 µM) | > 100 | > 100 | > 100 | > 100 | > 100 | > 100 | > 100 | > 100 | 100 (≈ 307 µM) | > 100 | 50 (≈ 154 µM) | 100 (≈ 307 µM) | >7 | > 1000 |  |
| CCOC(=O)/C=C/c1cnc([N+](=O)[O-])n1C | > 100 | 100 (≈ 444 µM) | 100 (≈ 444 µM) | 50 (≈ 222 µM) | > 100 | 50 (≈ 222 µM) | > 100 | > 100 | > 100 | > 100 | > 100 | 100 (≈ 444 µM) | 50 (≈ 222 µM) | 100 (≈ 444 µM) | 20 (≈ 88.8 µM) | 100 (≈ 444 µM) |  |  |  |
| CC(/C=C/c1cnc([N+](=O)[O-])n1C)=N\N1CCN(CCO)CC1 | 50 (≈ 155 µM) | 100 (≈ 310 µM) | 100 (≈ 310 µM) | 5 (≈ 15.5 µM) | > 100 | 100 (≈ 310 µM) | > 100 | > 100 | > 100 | > 100 | > 100 | > 100 | 50 (≈ 155 µM) | > 100 | 20 (≈ 62 µM) | 50 (≈ 155 µM) |  |  |  |
| CCCC/C(=C\c1cnc([N+](=O)[O-])n1C)[N+](=O)[O-] | 2 (≈ 7.87 µM) | 5 (≈ 19.7 µM) | 2 (≈ 7.87 µM) | 5 (≈ 19.7 µM) | 50 (≈ 197 µM) | 10 (≈ 39.3 µM) | 50 (≈ 197 µM) | 50 (≈ 197 µM) | 100 (≈ 393 µM) | 100 (≈ 393 µM) | 20 (≈ 78.7 µM) | 1 (≈ 3.93 µM) | 2 (≈ 7.87 µM) | 5 (≈ 19.7 µM) | 10 (≈ 39.3 µM) | 50 (≈ 197 µM) | >2.9 | 500 |  |
| Cc1cnc([N+](=O)[O-])n1CCOS(C)(=O)=O | 100 (≈ 401 µM) | 100 (≈ 401 µM) | > 100 | 20 (≈ 80.2 µM) | > 100 | 100 (≈ 401 µM) | 100 (≈ 401 µM) | 100 (≈ 401 µM) | > 100 | > 100 | > 100 | > 100 | > 100 | > 100 | 50 (≈ 201 µM) | 100 (≈ 401 µM) | 0.6 | 800 | 8.12 |
| Cc1ncc([N+](=O)[O-])n1CCO [METRONIDAZOLE] |  |  |  |  |  |  |  |  |  |  |  |  |  |  | 0.5 (≈ 2.92 µM) | 2 (≈ 11.7 µM) |  |  | 12.3 |
